{"source": "patent US20150218654A1", "about": "“METHODS FOR PREDICTING MULTIPLE MYELOMA TREATMENT RESPONSE” (INSERM (INSTITUT NATIONAL DE LA SANTÉ ET DE LA RE- CHERCHE …, priority 2012, published 2015)", "key": {"[1]": {"system": "human myeloma cell lines (HMCLs)", "assay": "Growth assay for myeloma cells (Cell Titer Glo, 4 days, graded DNMTi concentrations)", "format": "cell-based", "details": "for IC50: Homo sapiens, 5-azacitidine", "description": "HMCLs were cultured for 4 days in 96-well flat-bottom microtiter plates in RPMI 1640 medium, 10% FCS, 2 ng/ml IL-6 culture medium (control), with graded decitabine concentrations. Data are mean values plus or minus standard deviation (SD) of 5 experiments determined on sextuplet culture wells.\nHMCLs were cultured for 4 days in 96-well flat-bottom microtiter plates in RPMI 1640 medium, 10% FCS, 2 ng/ml IL-6 culture medium (control), and graded 5-azacitidine concentrations. Data are mean values plus or minus standard deviation (SD) of 5 experiments determined on sextuplet culture wells.\nHMCLs were cultured for 4 days in 96-well flat-bottom microtiter plates in RPMI 1640 medium, 10% FCS, 2 ng/ml IL-6 culture medium (control), with graded decitabine concentrations. Cell growth was evaluated by quantifying intracellular ATP amount with a Cell Titer Glo Luminescent Assay (Promega, Madison, Wis.) with a Centro LB 960 luminometer (Berthold Technologies, Bad Wildbad, Germany).\nThe inventors sought to determine whether DM Score could predict for the sensitivity of 10 HMCLs to DNMT inhibitor. Starting from a large cohort of 40 HMCLs (22), the 10 HMCLs with the highest or lowest DM Score were selected to assay decitabine sensitivity.\nHMCLs were cultured with graded 5-azacitidine (Sigma, St. Louis, Mo.) concentrations. HMCLs cell growth was quantified with a Cell Titer Glo Luminescent Assay (Promega, Madison, Wis.) and half inhibitory concentration (IC50) was determined using GraphPad Prism (http://www.graphpad.com/scientific-software/prism/)."}, "[2]": {"system": "primary myeloma cells of patients (CD138+ viable plasma cells)", "assay": "Mononuclear cell culture of patients' tumor samples, count of viable CD138+ myeloma cells by flow cytometry", "format": "cell-based, human", "details": "primary MMCs of high DM Score patients (N=7) versus low DM Score patients (N=7), P<0.05", "description": "Mononuclear cells from tumor samples of 12 patients with MM were cultured for 4 days in the presence of IL-6 (2 ng/ml) with or without graded decitabine concentrations. At day 4 of culture, the cell count and the viability were determined and the percentage of CD138^+ viable plasma cells was determined by flow cytometry. Black color represents patients with high DM Score (N=6) and white represents patients with low DM Score values (N=6).\nMononuclear cells from tumor samples of 14 patients with MM were cultured for 4 days in the presence of IL-6 (2 ng/ml) with or without graded 5-azacitidine concentrations. At day 4 of culture, the count of viable CD138′ MMCs was determined using flow cytometry. The black columns represent the mean±SD of primary myeloma cell counts (expressed as the percentage of the count without adding 5-azcytidine) of the 7 patients with a low DM Score and the white columns that of the 7 patients with a high DM Score.\nMononuclear cells from tumor samples of 12 patients with MM (agreement of the Center for Biological Resources of Montpellier University Hospital (N° DC-2008-417)) were cultured for 4 days at 2×10^5 cells/ml in RPMI 1640 medium, 10% FCS, 2 ng/ml IL-6, with or without graded concentrations of decitabine. In each culture group, viability and cell counts were assayed and MMCs were stained with an anti-CD138-PE mAb (Immunotech, Marseille, France) as previously described (32).\nPrimary myeloma cells of 14 patients were cultured with or without graded concentrations of 5-azacitidine and MMC cytotoxicity evaluated using anti-CD138-PE mAb (Immunotech, Marseille, France) as described (Jourdan, et al 1998; Mahtouk, et al 2004; Moreaux, et al 2012)."}}, "note": "Like-named read-outs stand apart in the source and are kept apart here."}
{"smiles": "Nc1ncn([C@@H]2O[C@H](CO)[C@@H](O)[C@H]2O)c(=O)n1", "note": "[5-azacitidine, 5-Azacytidine]", "values": [{"measurement": "fold higher 5-azacitidine sensitivity", "setting": "[1]; HMCLs with high DM Score versus low DM Score, P=0.01", "result": 3, "unit": "fold"}, {"measurement": "IC50", "setting": "[1]; 6 HMCLs with high DM Score, read-out: IC50 range", "result": "1.12 to 8.25", "unit": "µM"}, {"measurement": "IC50", "setting": "[1]; 6 HMCLs with high DM Score, read-out: median IC50", "result": 2.43, "unit": "µM"}, {"measurement": "IC50", "setting": "[1]; 6 HMCLs with low DM Score, read-out: IC50 range", "result": "5.73 to 27.9", "unit": "µM"}, {"measurement": "IC50", "setting": "[1]; 6 HMCLs with low DM Score, read-out: median IC50", "result": 7.45, "unit": "µM"}, {"measurement": "fold higher 5-azacytidine sensitivity", "setting": "[2]", "result": 1.6, "unit": "fold"}]}
